# According to US20250051375A1, “ANTI-HIV COMPOUNDS” (Gilead Sciences, Inc., priority 2023, published 2025):
# pEC50: −log10 of the molar value.
# What was measured:
# HIV-1 IIIB strain = assay: MT-4 HIV Wild Type Virus Infection Assay (IIIB Virus); format: cell-based; conditions: Human immunodeficiency virus 1, IIIB, MT4, 120 h, MT-4 cells acutely infected with HIV-1 IIIB, 5 day incubation, Cell-titer glo
# How it was run: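 MT-4 cells at 2×10^6 cells/ml in RPMI/10% FBS were acutely infected with HIV-1 IIIB for 1 h at 37° C, diluted 25× and added to serially diluted compounds. After 5 days at 37° C, viability read by CellTiter-Glo luminescence; EC50 from dose-response curves.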
# [1] = target: bovine intestinal alkaline phosphatase (Bos taurus (Bovine), UniProt P19111); assay: BiALP: conversion by bovine intestinal alkaline phosphatase; format: in vitro ADME; conditions: 2 μM substrate, 100 ng/mL iALP, Tris pH 7.8, 37° C., 60 minutes; for [Intermediate A] or [Amprenavir]: parent formed
# How it was run: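 LC-MS (positive mode) quantified analyte/internal-standard peak area ratios, referenced to 2 μM parent product. This followed a 60 min, 37° C reaction of 2 μM substrate in Tris buffer pH 7.8 (1 mM MgCl2, 1 mM ZnCl2) containing 100 ng/mL iALP or buffer alone, run in triplicate.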
# PBS Stability Assay = format: physicochemical; conditions: buffer, pH 7.4, 2 μM, phosphate buffered saline pH 7.4; read-out: PBS T½
# How it was run: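 Half-life derives from first-order exponential decline of % compound remaining, quantified by LC-MS analyte/internal-standard peak-area ratio. Compound (2 μM final) sat in pH 7.4 phosphate-buffered saline, with aliquots quenched into acidified acetonitrile containing labetalol from 0 to 120 min.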
# Solubility in FaSSIF = conditions: 23 °C, pH 6.5, fassif, thermodynamic from solid
# How it was run: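 Concentration measured by HPLC-UV after solid compound was dosed at 5 mg/mL into pH 6.5 fasted-state simulated intestinal fluid containing taurocholate and lecithin (4:1 molar) and vortexed.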
# bovine intestinal alkaline phosphatase, sequence (P19111 20-506): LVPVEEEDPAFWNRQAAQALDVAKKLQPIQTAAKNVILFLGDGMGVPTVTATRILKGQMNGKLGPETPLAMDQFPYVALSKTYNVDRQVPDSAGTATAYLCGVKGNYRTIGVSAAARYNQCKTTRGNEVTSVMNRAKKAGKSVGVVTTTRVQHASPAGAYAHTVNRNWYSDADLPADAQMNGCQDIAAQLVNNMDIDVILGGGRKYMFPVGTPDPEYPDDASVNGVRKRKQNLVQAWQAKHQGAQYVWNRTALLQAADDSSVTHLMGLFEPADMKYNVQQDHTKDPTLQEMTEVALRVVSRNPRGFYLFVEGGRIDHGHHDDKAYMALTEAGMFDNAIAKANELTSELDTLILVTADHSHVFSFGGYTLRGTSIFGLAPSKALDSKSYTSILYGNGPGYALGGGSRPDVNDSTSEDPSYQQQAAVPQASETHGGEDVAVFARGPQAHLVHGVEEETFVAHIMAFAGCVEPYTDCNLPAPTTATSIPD
SMILES,pEC50 (HIV-1 IIIB strain),[Compound] [1],half-life at 2 μM (PBS Stability Assay),solubility at 2 h (Solubility in FaSSIF),biALP Intermediate A or [Amprenavir] (% of total) [1],[Intermediate A] or [Amprenavir] [1]
COC(=O)N[C@H](C(=O)N[C@@H](Cc1ccc(C#Cc2cnc(N3CC4CCC(C3)N4C3COC3)nc2)cc1)[C@H](CN(Cc1c(F)cc(-c2ccn(C(F)F)n2)cc1F)NC(=O)[C@@H](NC(=O)OC)C(C)(C)C(F)(F)F)OC(=O)OCOC(=O)CC(C)(C)c1c(CC(=O)N[C@@H](CC(=O)O)C(=O)O)cc(C)cc1OP(=O)(O)O)C(C)(C)C(F)(F)F [Example 68],8.23,1478.2 nM,376 min,4440 µg/mL,–,–
COC(=O)N[C@H](C(=O)N[C@@H](Cc1ccc(C#Cc2cnc(N3CC4CCC(C3)N4C3COC3)nc2)cc1)[C@H](CN(Cc1c(F)cc(-c2ccn(C(F)F)n2)cc1F)NC(=O)[C@@H](NC(=O)OC)C(C)(C)C(F)(F)F)OC(=O)OCOC(=O)CC(C)(C)c1c(CC(=O)NCP(=O)(O)O)cc(C)cc1OP(=O)(O)O)C(C)(C)C(F)(F)F [Example 69],8.46,1578.5 nM,784 min,4950 µg/mL,–,–
COC(=O)N[C@H](C(=O)N[C@@H](Cc1ccc(C#Cc2cnc(N3CC4CCC(C3)N4C3COC3)nc2)cc1)[C@H](CN(Cc1c(F)cc(-c2ccn(C(F)F)n2)cc1F)NC(=O)[C@@H](NC(=O)OC)C(C)(C)C(F)(F)F)OC(=O)OCOC(=O)CC(C)(C)c1c(CC(=O)N[C@@H](CCC(=O)O)C(=O)O)cc(C)cc1OP(=O)(O)O)C(C)(C)C(F)(F)F [Example 70],8.18,1164.8 nM,316 min,5570 µg/mL,–,–
COC(=O)N[C@H](C(=O)N[C@@H](Cc1ccc(C#Cc2cnc(N3CC4CCC(C3)N4C3COC3)nc2)cc1)[C@H](CN(Cc1c(F)cc(-c2ccn(C(F)F)n2)cc1F)NC(=O)[C@@H](NC(=O)OC)C(C)(C)C(F)(F)F)OC(=O)OCOC(=O)CC(C)(C)c1c(CC(=O)NCC(=O)O)cc(C)cc1OP(=O)(O)O)C(C)(C)C(F)(F)F [Example 71],8.41,1036.2 nM,472 min,4420 µg/mL,–,–
COC(=O)N[C@H](C(=O)N[C@@H](Cc1ccc(C#Cc2cnc(N3CC4CCC(C3)N4C3COC3)nc2)cc1)[C@H](CN(Cc1c(F)cc(-c2ccn(C(F)F)n2)cc1F)NC(=O)[C@@H](NC(=O)OC)C(C)(C)C(F)(F)F)OC(=O)OCOC(=O)CC(C)(C)c1c(CC(=O)N[C@@H](CC(N)=O)C(=O)O)cc(C)cc1OP(=O)(O)O)C(C)(C)C(F)(F)F [Example 72],8.27,827.8 nM,367 min,4980 µg/mL,–,–
COC(=O)N[C@H](C(=O)N[C@@H](Cc1ccc(C#Cc2cnc(N3CC4CCC(C3)N4C3COC3)nc2)cc1)[C@H](CN(Cc1c(F)cc(-c2ccn(C(F)F)n2)cc1F)NC(=O)[C@@H](NC(=O)OC)C(C)(C)C(F)(F)F)OC(=O)OCOC(=O)CC(C)(C)c1c(CC(=O)NC(C)(C)CCC(=O)O)cc(C)cc1OP(=O)(O)O)C(C)(C)C(F)(F)F [Example 73],8.34,1660.4 nM,382 min,145 µg/mL,–,–
COC(=O)N[C@H](C(=O)N[C@@H](Cc1ccc(C#Cc2cnc(N3CC4CCC(C3)N4C3COC3)nc2)cc1)[C@H](CN(Cc1c(F)cc(-c2ccn(C(F)F)n2)cc1F)NC(=O)[C@@H](NC(=O)OC)C(C)(C)C(F)(F)F)OC(=O)OCOC(=O)CC(C)(C)c1c(CC(=O)N2CC[C@H](C(=O)O)C2)cc(C)cc1OP(=O)(O)O)C(C)(C)C(F)(F)F [Example 75],8.09,1420.1 nM,286 min,4170 µg/mL,–,–
COC(=O)N[C@H](C(=O)N[C@@H](Cc1ccc(C#Cc2cnc(N3CC4CCC(C3)N4C3COC3)nc2)cc1)[C@H](CN(Cc1c(F)cc(-c2ccn(C(F)F)n2)cc1F)NC(=O)[C@@H](NC(=O)OC)C(C)(C)C(F)(F)F)OC(=O)CC(C)(C)c1c(CC(=O)N2CCN(CC(=O)O)CC2)cc(C)cc1OP(=O)(O)O)C(C)(C)C(F)(F)F [Example 82],6.48,1224.3 nM,402 min,< 1000 µg/mL,–,–
COC(=O)N[C@H](C(=O)N[C@@H](Cc1ccc(C#Cc2cnc(N3CC4CCC(C3)N4C3COC3)nc2)cc1)[C@H](CN(Cc1c(F)cc(-c2ccn(C(F)F)n2)cc1F)NC(=O)[C@@H](NC(=O)OC)C(C)(C)C(F)(F)F)OC(=O)OCOC(=O)CC(C)(C)c1c(CC(=O)N2CCN(S(N)(=O)=O)CC2)cc(C)cc1OP(=O)(O)O)C(C)(C)C(F)(F)F [Example 85],8.62,1466.1 nM,136 min,< 1000 µg/mL,–,–
COC(=O)N[C@H](C(=O)N[C@@H](Cc1ccc(C#Cc2cnc(N3CC4CCC(C3)N4C3COC3)nc2)cc1)[C@H](CN(Cc1c(F)cc(-c2ccn(C(F)F)n2)cc1F)NC(=O)[C@@H](NC(=O)OC)C(C)(C)C(F)(F)F)OC(=O)OCOC(=O)CC(C)(C)c1c(CC(=O)N2CCN(S(=O)(=O)N(C)C)CC2)cc(C)cc1OP(=O)(O)O)C(C)(C)C(F)(F)F [Example 86],8.39,1890 nM,155 min,< 1000 µg/mL,5.6 % of total,112.9 nM
COC(=O)N[C@H](C(=O)N[C@@H](Cc1ccc(C#Cc2cnc(N3CC4CCC(C3)N4C3COC3)nc2)cc1)[C@H](CN(Cc1c(F)cc(-c2ccn(C(F)F)n2)cc1F)NC(=O)[C@@H](NC(=O)OC)C(C)(C)C(F)(F)F)OC(=O)OCOC(=O)CC(C)(C)c1c(CC(=O)N[C@@H](CCC(N)=O)C(=O)O)cc(C)cc1OP(=O)(O)O)C(C)(C)C(F)(F)F [Example 87],8.44,1161.5 nM,325 min,4500 µg/mL,–,–
COC(=O)N[C@H](C(=O)N[C@@H](Cc1ccc(C#Cc2cnc(N3CC4CCC(C3)N4C3COC3)nc2)cc1)[C@H](CN(Cc1c(F)cc(-c2ccn(C(F)F)n2)cc1F)NC(=O)[C@@H](NC(=O)OC)C(C)(C)C(F)(F)F)OC(=O)CC(C)(C)c1c(CC(=O)N[C@@H](CCC(N)=O)C(=O)O)cc(C)cc1OP(=O)(O)O)C(C)(C)C(F)(F)F [Example 88],7.37,1726.6 nM,370 min,4640 µg/mL,6 % of total,109.8 nM
COC(=O)N[C@H](C(=O)N[C@@H](Cc1ccc(C#Cc2cnc(N3CC4CCC(C3)N4C3COC3)nc2)cc1)[C@H](CN(Cc1c(F)cc(-c2ccn(C(F)F)n2)cc1F)NC(=O)[C@@H](NC(=O)OC)C(C)(C)C(F)(F)F)OC(=O)CC(C)(C)c1c(CC(=O)N[C@@H](CC(N)=O)C(=O)O)cc(C)cc1OP(=O)(O)O)C(C)(C)C(F)(F)F [Example 89],6.94,1704.6 nM,318 min,2390 µg/mL,–,–
COC(=O)N[C@H](C(=O)N[C@@H](Cc1ccc(C#Cc2cnc(N3CC4CCC(C3)N4C3COC3)nc2)cc1)[C@H](CN(Cc1c(F)cc(-c2ccn(C(F)F)n2)cc1F)NC(=O)[C@@H](NC(=O)OC)C(C)(C)C(F)(F)F)OC(=O)CC(C)(C)c1c(CC(=O)Nc2ccc(S(=O)(=O)O)cc2)cc(C)cc1OP(=O)(O)O)C(C)(C)C(F)(F)F [Example 90],7.00,1746 nM,327 min,4240 µg/mL,–,–
COC(=O)N[C@H](C(=O)N[C@@H](Cc1ccc(C#Cc2cnc(N3CC4CCC(C3)N4C3COC3)nc2)cc1)[C@H](CN(Cc1c(F)cc(-c2ccn(C(F)F)n2)cc1F)NC(=O)[C@@H](NC(=O)OC)C(C)(C)C(F)(F)F)OC(=O)CC(C)(C)c1c(CC(=O)NCCCC(=O)O)cc(C)cc1OP(=O)(O)O)C(C)(C)C(F)(F)F [Example 91],7.22,2153.3 nM,390 min,< 1000 µg/mL,–,–
COC(=O)N[C@H](C(=O)N[C@@H](Cc1ccc(C#Cc2cnc(N3CC4CCC(C3)N4C3COC3)nc2)cc1)[C@H](CN(Cc1c(F)cc(-c2ccn(C(F)F)n2)cc1F)NC(=O)[C@@H](NC(=O)OC)C(C)(C)C(F)(F)F)OC(=O)CC(C)(C)c1c(CC(=O)N[C@H](CCC(=O)O)C(=O)O)cc(C)cc1OP(=O)(O)O)C(C)(C)C(F)(F)F [Example 92],7.43,1771.4 nM,357 min,3660 µg/mL,–,–
